Experiment [1] relates to coronary spasm. The experiment in a line: Vasopressin test in anaesthetized rats (coronary vasodilating activity, coronary spasm). The class given is in vivo, rat. As to conditions: 0.6 g/kg i.d., vasopressin (Lysopressin) 1 I.U./kg i.v. The method, then: 1. Coronary Vasodilating activity
a) Vasopressin test in anaesthetized rats
Vasopressin (Lysopressin: 1 I.U./kg) was administered intravenously in order to provoke coronary spasm (ST-segment elevation in the ECG).
The ability of test compounds to reduce coronary spasm is taken as a measure of their anti-anginal potential in spasm-induced angina pectoris. (Ref. Drug.Res. 33(11), 8,1117-1121 (1983)).

The subject of experiment [2] is heart rate, systolic left ventricular pressure, left ventricular dp/dt max and mean arterial blood pressure. The experiment is described as follows: Haemodynamic profile in anaesthetized rats. The class given is in vivo, rat. Conditions: for % effect of Dhr 20 on dp/dtmax: left ventricular. The text has this: 2. Haemodynamic profile in anaesthetized rats.
The effect of compounds of the invention on heart rate, systolic left ventricular pressure, left ventricular dp/dt max and mean arterial blood pressure was investigated so as to obtain information on the anti-anginal potential of these compounds, by reducing the oxygen demand of the ischaemic heart.
**LVP = systolic left ventricular pressure
***BP = mean arterial blood pressure
^a = i.d. administration

The target in experiment [3] is T1, coronary artery (Sus scrofa, UniProt A0A8W4FNC0).
T1 construct: Coronary artery spirals were prepared; from tissue; host or cells: pig coronary artery spirals
The experiment in a line: Pig isolated coronary artery, Ca++-antagonistic activity. The method, then:
b) Pig isolated coronary artery
Coronary artery spirals were prepared and in lengths from 1.5 to 2 cm were incubated at 32.5° in Ca^++ -free Krebs-Henseleit solution containing tris buffer and 60 mM KCl. Ca^++ in concentrations ranging from 0.1 mM-7 mM was given every 10 min to produce a control dose-responsecurve. Following a wash out circle using EDTA, either placebo or drug was administered, and an equilibration time of 30 minutes allowed before the second dose-response curve was made. Dose-ratios were calculated at ED50 -levels, from these the log KB was calculated.

Setting [4] is: anaesthetized rat, i.v., at Dhr 20.

13 compounds from US5494933A, “Treatment” (Beecham-Wuelfing GmbH & Co. KG, priority 1986, dated 1996) can be followed below.

T1 sequence (A0A8W4FNC0 1-2067): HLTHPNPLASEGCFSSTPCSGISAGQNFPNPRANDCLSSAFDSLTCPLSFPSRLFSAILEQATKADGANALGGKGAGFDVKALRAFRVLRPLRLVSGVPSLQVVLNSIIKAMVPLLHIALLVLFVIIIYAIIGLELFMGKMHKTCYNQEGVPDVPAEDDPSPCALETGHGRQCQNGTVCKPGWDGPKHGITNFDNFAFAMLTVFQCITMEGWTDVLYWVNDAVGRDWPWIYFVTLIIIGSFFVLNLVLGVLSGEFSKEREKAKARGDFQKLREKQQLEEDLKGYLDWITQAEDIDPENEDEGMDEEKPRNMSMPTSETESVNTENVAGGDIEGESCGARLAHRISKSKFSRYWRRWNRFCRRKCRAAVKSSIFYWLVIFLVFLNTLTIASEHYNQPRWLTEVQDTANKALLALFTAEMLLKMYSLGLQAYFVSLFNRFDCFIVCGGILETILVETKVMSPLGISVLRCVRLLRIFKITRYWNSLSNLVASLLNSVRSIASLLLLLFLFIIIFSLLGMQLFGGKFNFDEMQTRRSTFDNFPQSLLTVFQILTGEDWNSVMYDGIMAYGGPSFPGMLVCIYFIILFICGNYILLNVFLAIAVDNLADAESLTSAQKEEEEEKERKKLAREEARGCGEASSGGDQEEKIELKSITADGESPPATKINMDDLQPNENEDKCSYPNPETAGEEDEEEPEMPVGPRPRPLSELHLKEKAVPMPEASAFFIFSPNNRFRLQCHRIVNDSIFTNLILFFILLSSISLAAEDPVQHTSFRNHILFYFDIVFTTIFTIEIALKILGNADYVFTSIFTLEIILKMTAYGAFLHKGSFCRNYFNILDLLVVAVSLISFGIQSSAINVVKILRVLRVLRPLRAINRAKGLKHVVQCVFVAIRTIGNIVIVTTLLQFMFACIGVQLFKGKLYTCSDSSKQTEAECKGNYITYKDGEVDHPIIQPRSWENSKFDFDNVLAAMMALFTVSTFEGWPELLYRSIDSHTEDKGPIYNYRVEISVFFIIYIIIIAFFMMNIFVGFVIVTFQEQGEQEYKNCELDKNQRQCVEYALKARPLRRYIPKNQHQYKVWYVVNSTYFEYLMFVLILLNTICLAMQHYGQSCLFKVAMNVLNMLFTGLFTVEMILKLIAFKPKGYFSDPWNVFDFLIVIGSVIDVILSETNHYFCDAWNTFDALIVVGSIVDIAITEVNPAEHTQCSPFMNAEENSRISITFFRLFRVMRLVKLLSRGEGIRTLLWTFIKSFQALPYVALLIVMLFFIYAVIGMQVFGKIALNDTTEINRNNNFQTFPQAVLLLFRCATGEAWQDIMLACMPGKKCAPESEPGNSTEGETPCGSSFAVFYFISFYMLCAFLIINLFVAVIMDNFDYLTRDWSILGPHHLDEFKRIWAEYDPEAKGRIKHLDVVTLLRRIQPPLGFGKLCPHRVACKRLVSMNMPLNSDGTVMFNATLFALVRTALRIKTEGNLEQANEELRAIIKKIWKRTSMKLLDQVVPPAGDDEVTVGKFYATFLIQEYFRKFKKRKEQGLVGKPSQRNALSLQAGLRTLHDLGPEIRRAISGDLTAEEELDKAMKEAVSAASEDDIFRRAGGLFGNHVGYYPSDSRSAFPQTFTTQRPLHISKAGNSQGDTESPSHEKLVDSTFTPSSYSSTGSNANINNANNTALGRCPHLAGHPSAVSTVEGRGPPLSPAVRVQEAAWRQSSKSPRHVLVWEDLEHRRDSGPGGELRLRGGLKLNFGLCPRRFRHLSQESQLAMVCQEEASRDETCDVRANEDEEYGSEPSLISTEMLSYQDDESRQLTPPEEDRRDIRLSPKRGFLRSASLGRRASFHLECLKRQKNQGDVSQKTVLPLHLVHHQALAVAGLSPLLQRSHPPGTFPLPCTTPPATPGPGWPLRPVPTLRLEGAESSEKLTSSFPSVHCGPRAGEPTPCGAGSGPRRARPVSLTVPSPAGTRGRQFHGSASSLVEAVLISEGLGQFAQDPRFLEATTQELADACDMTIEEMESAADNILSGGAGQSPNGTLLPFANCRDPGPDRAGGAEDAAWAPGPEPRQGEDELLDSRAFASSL

Take `COc1ccc(CCN(C)CCCN(Cc2ccccc2[N+](=O)[O-])c2ccc(OC)c(OC)c2)cc1OC` [Example E1, (N-[3,4-Dimethoxyphenyl]-N-3-[N'-2-(3,4-dimethoxyphenyl)-ethyl-N'-methylamino]-propyl)-(2-nitro)-benzylamine]: the “activity against coronary spasm (ST-segment elevation in the ECG)” value in experiment [1] is listed as “active against coronary spasm”. Moreover, the “i.v. duration of action on heart rate” value in experiment [2] (anaesthetized rat, i.v.) stood at 10 min. Also, in experiment [2] (setting [4]), the “% effect of Dhr 20 on dp/dtmax” value is listed as -3%.
For `COc1ccc(CCN(C)CCCN(Cc2ccccc2)c2ccc(OC)c(OC)c2)cc1OC` [Example E4, (N-[3,4-Dimethoxyphenyl]-N-3-[N'-2-(3,4-dimethoxyphenyl)-ethyl-N'-methylamino]-propyl)-benzylamine], the Kb in experiment [3] (pig coronary artery spirals, 60 mM KCl, Ca++ 0.1 mM-7 mM, 30 min equilibration, dose-ratios at ED50 levels) is 1.41 µM. Besides, in experiment [3] (pig coronary artery, from log KB), the “Ca++-antagonistic activity in coronary artery in vitro” value is on record as “moderate to medium”. The “i.v. duration of action on heart rate” value in experiment [2] (anaesthetized rat, i.v.) stood at 10 min. In addition, the “% effect of Dhr 20 on dp/dtmax” value in experiment [2] (setting [4]) was -12%.
As for `COc1ccc(CCN(C)CCCN(Cc2ccc([N+](=O)[O-])cc2)c2ccc(OC)c(OC)c2)cc1OC` [Example E6, (N-[3,4-Dimethoxyphenyl]-N-3-[N'-2-(3,4-dimethoxyphenyl)-ethyl-N'-methylamino]-propyl)-(4-nitro)-benzylamine], the “i.v. duration of action on heart rate” value in experiment [2] (anaesthetized rat, i.v.) was found to be 60 min. Moreover, the “% effect of Dhr 20 on dp/dtmax” value in experiment [2] (setting [4]) is recorded as -5%.
On the same counts, the results for `CCCCC(=O)N(CCCN(C)CCc1ccc(OC)c(OC)c1)c1ccc(OC)c(OC)c1` [Example E12, (N-[3,4-Dimethoxyphenyl]-N-3-[N'-2-(3,4-dimethoxyphenyl)-ethyl-N'-methylamino]-propyl)-pentanoic acid amide] are 10 min and -6%.
As for `COc1ccc(CCN(C)CCCN(C(=O)CCc2ccccc2)c2ccc(OC)c(OC)c2)cc1OC` [Example E15, (N-[3,4-Dimethoxyphenyl]-N-3-[N'-2-(3,4-dimethoxyphenyl)-ethyl-N'-methylamino]-propyl)-(3-phenyl)propanoic acid amide], the “i.v. duration of action on heart rate” value in experiment [2] (anaesthetized rat, i.v.) worked out at 10 min. Further, the “% effect of Dhr 20 on dp/dtmax” value in experiment [2] (setting [4]) is reported as -7%.
For the compound `CCCCOC(=O)N(CCCN(C)CCc1ccc(OC)c(OC)c1)c1ccc(OC)c(OC)c1` [Example E24, (N-[3,4-Dimethoxyphenyl]-N-3-[N'-2-(3,4-dimethoxyphenyl)-ethyl-N'methylamino]-propyl)-n-butyl-urethane], the “i.v. duration of action on heart rate” value in experiment [2] (anaesthetized rat, i.v.) is listed as 10 min. For the same compound, in experiment [2] (setting [4]), the “% effect of Dhr 20 on dp/dtmax” value is given as -8%.
As to `COc1ccc(CCN(C)CCCN(C(=O)Oc2ccccc2)c2ccc(OC)c(OC)c2)cc1OC` [Example E25, (N-[3,4-Dimethoxyphenyl]-N-3-[N'-2-(3,4-dimethoxyphenyl)-ethyl-N'-methylamino]-propyl)-phenyl-urethane], in experiment [2] (anaesthetized rat, i.v.), the “Dhr 20 (i.v. dose which reduces heart rate by ca. 20%)” value came out at 0.8 and the “i.v. duration of action on heart rate” value amounted to 10 min. Besides, in experiment [2] (setting [4]), the “% effect of Dhr 20 on BP (mean arterial blood pressure)” value (“% effect of Dhr 20 on BP” below) is reported as -14%, the “% effect of Dhr 20 on LVP (systolic left ventricular pressure)” value (from here on “% effect of Dhr 20 on LVP”) is on record as -10% and the “% effect of Dhr 20 on dp/dtmax” value was -2%.
Regarding `CCCNC(=O)N(CCCN(C)CCc1ccc(OC)c(OC)c1)c1ccc(OC)c(OC)c1` [Example E27, (N-[3,4-Dimethoxyphenyl]-N-3-[N'-2-(3,4-dimethoxyphenyl)-ethyl-N'-methylamino]-propyl)-N"-n-propyl-urea], the “i.v. duration of action on heart rate” value in experiment [2] (anaesthetized rat, i.v.) fell in the range of 5 to 10 min. The “% effect of Dhr 20 on dp/dtmax” value in experiment [2] (setting [4]) is reported as -1%.
For `COc1ccc(CCN(C)CCCN(C(=O)NCc2ccccc2)c2ccc(OC)c(OC)c2)cc1OC` [Example E30, (N-[3,4-Dimethoxyphenyl]-N-3-[N'-2-(3,4-dimethoxyphenyl)-ethyl-N'-methylamino]-propyl)-N"-benzylurea], in experiment [2] (anaesthetized rat, i.v.), the “i.v. duration of action on heart rate” value is 10 min. In experiment [2] (setting [4]), the “% effect of Dhr 20 on dp/dtmax” value was -20%.
As to `COc1ccc(CCN(C)CCN(C(=O)NC(C)c2ccccc2)c2ccc(OC)c(OC)c2)cc1OC` (stereo not shown) [Example E32], the “i.v. duration of action on heart rate” value in experiment [2] (anaesthetized rat, i.v.) was 10 min. In experiment [2] (setting [4]), the “% effect of Dhr 20 on dp/dtmax” value is reported as -3%.
Regarding `CCCCCN(CCCN(C)CCc1ccc(OC)c(OC)c1)c1ccc(OC)c(OC)c1` [Example E34, (N-[3,4-Dimethoxyphenyl]-N-3-[N'-2-(3,4-dimethoxyphenyl)-ethyl-N'-methylamino]-propyl)-n-pentylamine], the “i.v. duration of action on heart rate” value in experiment [2] (anaesthetized rat, i.v.) is 5 to 10 min. In addition, in experiment [2] (setting [4]), the “% effect of Dhr 20 on dp/dtmax” value is listed as -10%.
Turning to `COc1ccc(CCN(C)CCCN(c2ccc(OC)c(OC)c2)c2ncc([N+](=O)[O-])cc2[N+](=O)[O-])cc1OC` [Example E44, (N-[3,4-Dimethoxyphenyl]-N-3-[N'-2-(3,4-dimethoxyphenyl)-ethyl-N'-methyl-amino]-propyl)-3,5-dinitro-2-amino-pyridine], in experiment [2] (anaesthetized rat, i.v.), the “Dhr 20 (i.v. dose which reduces heart rate by ca. 20%)” value is 3.2 and the “i.v. duration of action on heart rate” value stood at 10 min. Besides, in experiment [2] (setting [4]), the “% effect of Dhr 20 on BP” value is recorded as -10%, the “% effect of Dhr 20 on LVP” value is on record as -6% and the “% effect of Dhr 20 on dp/dtmax” value was -8%.
Take `COc1ccc(CCN(C)CCCN(C(=O)c2ccc([N+](=O)[O-])cc2)c2ccc(OC)c(OC)c2)cc1OC` [Example E50, (N-[3,4-Dimethoxyphenyl]-N-3-[N'-2-(3,4-dimethoxyphenyl)-ethyl-N'-methyl-amino]-propyl)-4-nitrobenzamide]: in experiment [2] (rat, in vivo), the “% effect of Dhr 20 on BP” value is on record as -6% and the “duration of action on heart rate” value is reported as over 90 min. Also, in experiment [2] (rat, in vivo, iv), the “% effect of Dhr 20 on BP” value is -1% and the “% effect of Dhr 20 on LVP” value is on record as -1%.

Usually Kb stands for the equilibrium dissociation constant of an antagonist, usually derived from a functional assay.
